Test results as given in patent publication US20200316096A1, “COMBINATION OF DIET AND DRUG THERAPY FOR TREATING CANCER” (Trustees of Boston College, priority 2019, published 2020).

Tests used:
VM-M3 tumour cells = assay: VM-M3 brain tumour histology (H&E) and Ki-67 staining; type: in vivo, mouse (VM/Dk); settings: compared with SD-UR brains
[1] = LC/MS/MS analysis of DON in plasma and VM-M3 brain tumour tissue; type: in vivo, mouse (VM/Dk); settings: for concentration of DON in VM-M3 tumour tissue, mice fed KD-R versus mice fed SD-UR: 60 min after i.p. DON 1.0 mg/kg
Method: FIGS. 4A and 4B. Restricted Ketogenic diet increases DON delivery to the VM-M3 GBM. The content of DON in the VM-M3 brain tumour tissue was quantified using two LC/MS/MS procedures, as described in Methods. The brain tissue was analyzed for DON content 60 minutes after i.p. DON injection. The values in experiment a are presented as mean of two independent samples, while the values in experiment b are presented as the mean±SEM (n=3). The difference between the two groups in experiment b was significant (P<0.01).
Plasma and brain tissues were prepared for DON analysis one hour after systemic DON injection, as described in Methods below. […] In another independent experiment, using a similar analytical system, the concentration of DON in the VM-M3 tumour tissue was about 3-fold greater in mice fed the KD-R than in mice fed the SD-UR (FIG. 4B). In both methods of measurement, DON delivery to the brain was greater in the mice fed the KD-R than in the mice fed the SD-UR (FIGS. 4A and 4B). DON was detected in plasma 10 min after i.p. injection (data not shown) and was detected in brain tissue 60 min following injection. These findings indicate that the KD-R facilitated delivery of DON to the VM-M3 tumour tissue.
Two independent LC-MS instruments and procedures were used to measure the amount of DON in the blood and in the VM-M3 tumour tissues. This was done to validate the accuracy of the procedures. A Triple quad method (Agilent 6460) was used to analyze DON in the first procedure (FIG. 4A). Mice were injected with 1.0 mg/kg of DON at either 10 min or 60 min before collection of the brains and blood. The brains were immediately flash frozen. Blood samples were collected before removal of the brain. 3N HCl+n-butanol (250 μl) was added to 50 μl of plasma, vortexed and then centrifuged at 16,000×g for 5 min to precipitate proteins. A 200 μl aliquot of the supernatant was transferred to a 1.5 ml tube and incubated at 60° C. for 30 min in a shaking water bath to perform the DON derivatization reaction. For the brain tissue, 5 μl of n-butanol containing 3N HCl was added per milligram tissue. The tissue sample was then homogenized with a glass pestle and was then vortexed and centrifuged, and prepared similarly to the plasma samples. Standard solutions were prepared by serial dilution to generate concentrations from 10 nM to 100 μM. DON was added to untreated mouse plasma or brain tissue to generate an internal standard curve. A high-resolution LC-MS QToF method (Agilent 6550) was used to analyze DON in the second procedure (FIG. 4B). Mice were injected with DON as above. Pre-weighed frozen brain tissue was transferred to a tube containing ceramic beads (Omni tubes). 3M HCl+butanol was added at a concentration of 5 μI/mg of tissue. […]

[2] = Toxicity and body weight observations in DON treated mice; type: in vivo, mouse
Method: FIG. 11. Body weights of VM-M3 tumour bearing mice. VM-M3/Fluc tumour fragments were implanted as described in FIGS. 1A-1F. Body weight was determined every alternate day. Initial and final body weight data are presented. Mice fed the SD-UR began to drop body weight on the day of termination due to tumour burden. Mice fed the KD-R maintained a 15-18% body weight reduction throughout the experiment due to reduced caloric intake. Initial and final body weights were similar in the SD-UR and the SD-UR+DON mice (n=15 mice/group). Final body weights were lower than initial body weights in the KD-R and the KD-R+DON mice (n=15 mice/each group). Values are expressed as the mean+/−SEM and a two tailed student's t-test was performed between the initial and final values of each group (*=p<0.01).
It is proposed that issues with DON toxicity arise when there is an appreciable competition for glutamine between host and tumour. There is also increasing evidence supporting the protective role of glutamine supplementation for cancer patients^46. Since tumour consumption of glutamine is dissipative, glutamine supplementation might not increase tumour growth^46. However, additional preclinical studies are needed to determine if glutamine supplementation could be used together with DON. The present disclosure provides that strategies for managing toxicity of a therapeutically effective drug would be as important as developing a new drug.
The following studies were to determine if the simultaneous targeting of glucose and glutamine, while under therapeutic ketosis, could manage late stage growth and enhance survival without toxicity in two different syngeneic mouse models of GBM. DON was administered 7 days after tumour implantation, which is considered late for the VM-M3/Fluc tumour, as neurological signs and symptoms first appear at 10 to 12 days post implantation with morbidity occurring in 100% of the tumour-bearing mice by 14-18 days^2. Additional results were obtained in C57BL/6J inbred mice bearing the syngeneic CT-2A high-grade stem cell glioma^32. […]

[3] = shown previously (ref 33); cited from earlier work

In the case of [N-]=[N+]=CC(=O)CC[C@H](N)C(=O)O [DON, 6-diazo-5-oxo-L-norleucine], the “histology (H&E) of primary tumour” value (VM-M3 tumour cells) is reported as “significant area of dead cells”, the DON in plasma ([1]; 10 min after i.p. injection) is reported as “detected” and the “DON in brain tissue” value ([1]; 60 min following injection) is reported as “detected”. The “concentration of DON in VM-M3 tumour tissue, mice fed KD-R versus mice fed SD-UR” value ([1]; first procedure (FIG. 4A)) was “about 2 fold”, the “concentration of DON in VM-M3 tumour tissue, mice fed KD-R versus mice fed SD-UR” value ([1]; independent experiment (FIG. 4B)) was “about 3 fold” and the “toxic effects in non-tumour-bearing VM/Dk mice” value ([2]; DON at the concentrations used in this study) was “no toxic effects”. For the same compound, the “initial versus final body weight” value ([2]; VM-M3 tumour bearing mice, n=15 mice/group) was “similar”, the “toxicity in DON treated tumour-bearing mice” value ([2]; until end of study, when mild muscle loss was observed in some mice) was “No noticeable toxicity” and the “toxic effects in C57BL/6J mice” value [3] was “no toxic effects”.
